Experimental data from patent US20090047279A1, “(R)-N-Stereoisomers of 7,8-Saturated-4,5-Epoxy-Morphinanium Analogs” (Progenics Pharmaceuticals, Inc., priority 2006, published 2009).
Counter-ions that a name gives are not always drawn.

Columns and labels:
[1] = test system: μ-opioid receptors; assay: Evaluation of agonist activity, guinea pig ileum test; settings: for Response to the compound + Naloxone (1.0E−07 M): compound 1.0E−04 M + naloxone 1.0E−07 M
Description: (§1) Agonist/antagonist activity at the μ-opioid receptor was determined using the well known guinea pig ileum test. Briefly, an a section of ileum section was placed in a stabilizing solution in a tensed state. Transducers were used to measure changes in tension upon electrical stimulation to the tissue before and after challenge with a potential agonist/antagonist Using a control, constriction inhibition, and constriction inhibition cancellation, may be measured.
(§2) The results are expressed as a percent of the control response to DAMGO (decrease in which contract amplitude)

[2] = test system: μ-opioid receptors; assay: Evaluation of antagonist activity, guinea pig ileum test (responses to DAMGO)
Description: as §1, §2

[3] = 1.0E−08 M, control DAMGO 1.0E−07 M = 100

Row | SMILES | Responses to increasing concentrations of the compounds ([1]; 1.0E−06 M) | Responses to increasing concentrations of the compounds ([1]; 1.0E−07 M) | Responses to increasing concentrations of the compounds [1, 3] | Responses to increasing concentrations of the compounds ([1]; 1.0E−04 M) | Responses to increasing concentrations of the compounds ([1]; 1.0E−05 M) | Responses to increasing concentrations of the compounds ([1]; 3.0E−05 M) | Responses to increasing concentrations of the compounds ([1]; 3.0E−06 M) | Responses to increasing concentrations of the compounds ([1]; 3.0E−07 M) | Responses to increasing concentrations of the compounds ([1]; 3.0E−08 M) | Response to the compound + Naloxone (1.0E−07 M) [1] | Responses to DAMGO (1.0E−07 M) in the presence of increasing concentrations of the compounds ([2]; 1.0E−04 M) | Responses to DAMGO (1.0E−07 M) in the presence of increasing concentrations of the compounds ([2]; 1.0E−05 M) | Responses to DAMGO (1.0E−07 M) in the presence of increasing concentrations of the compounds ([2]; 1.0E−06 M) | Responses to DAMGO (1.0E−07 M) in the presence of increasing concentrations of the compounds ([2]; 1.0E−07 M) | Responses to DAMGO (1.0E−07 M) in the presence of increasing concentrations of the compounds ([2]; 1.0E−08 M) | Responses to DAMGO (1.0E−07 M) in the presence of increasing concentrations of the compounds ([2]; 3.0E−05 M) | Responses to DAMGO (1.0E−07 M) in the presence of increasing concentrations of the compounds ([2]; 3.0E−06 M) | Responses to DAMGO (1.0E−07 M) in the presence of increasing concentrations of the compounds ([2]; 3.0E−07 M) | Responses to DAMGO (1.0E−07 M) in the presence of increasing concentrations of the compounds ([2]; 3.0E−08 M) | also measured
1 | C[C@@H](NC(=O)[C@@H](N)Cc1ccc(O)cc1)C(=O)NCC(=O)N(C)[C@@H](Cc1ccccc1)C(=O)NCCO [DAMGO, reference compound] | 103% of the control response to DAMGO | 96% of the control response to DAMGO | 57% of the control response to DAMGO |  |  |  |  |  |  |  |  |  |  |  |  |  |  |  |  | Responses to increasing concentrations of the compounds ([1]; 1.0E−09 M): 9% of the control response to DAMGO; Response to DAMGO + Naloxone (1.0E−07 M) ([1]; DAMGO after the highest concentration, + naloxone 1.0E−07 M): 4% of the control response to DAMGO
2 | CCCOC1C[C@@H](O)[C@@H]2Oc3c(O)ccc4c3[C@@]23CC[N+](C)(CC2CC2)[C@H](C4)[C@]13O (stereo partly drawn) [(R)-CPM, trifluoroacetate] | 0% of the control response to DAMGO | 0% of the control response to DAMGO | 0% of the control response to DAMGO | 22% of the control response to DAMGO | 0% of the control response to DAMGO | 5% of the control response to DAMGO | 0% of the control response to DAMGO | 0% of the control response to DAMGO | 0% of the control response to DAMGO | 17% of the control response to DAMGO | 22% of the control response to DAMGO | 5% of the control response to DAMGO | 32% of the control response to DAMGO | 90% of the control response to DAMGO | 100% of the control response to DAMGO | 12% of the control response to DAMGO | 11% of the control response to DAMGO | 69% of the control response to DAMGO | 100% of the control response to DAMGO | 
3 | C[N@+]1(CC2CCCC2)CC[C@]23c4c5ccc(O)c4O[C@H]2C(=O)CC[C@@]3(O)[C@H]1C5 [(R)-CPTM, (R)-17-cyclopentylmethyl-4,5α-epoxy-3,14-dihydroxy-17-methyl-6-oxomorphinanium iodide] | 0% of the control response to DAMGO | 0% of the control response to DAMGO | 0% of the control response to DAMGO | 18% of the control response to DAMGO | 0% of the control response to DAMGO | 12% of the control response to DAMGO | 0% of the control response to DAMGO | 0% of the control response to DAMGO | 0% of the control response to DAMGO | 18% of the control response to DAMGO | 40% of the control response to DAMGO | 28% of the control response to DAMGO | 21% of the control response to DAMGO | 84% of the control response to DAMGO | 100% of the control response to DAMGO | 34% of the control response to DAMGO | −1% of the control response to DAMGO | 63% of the control response to DAMGO | 96% of the control response to DAMGO | 
